Assay results taken from ChEMBL document CHEMBL2073985, “Increase in doxorubicin cytotoxicity by carvedilol inhibition of P-glycoprotein activity” (Biochem Pharmacol, 1999).

Target: ATP-dependent translocase ABCB1 (Homo sapiens, UniProt P08183)
Test: TP_TRANSPORTER: increase in Calcein intracellular accumulation (Calcein: 50 mg/L, Carvedilol: 10 uM) in Hs578T-Dox cells
Assay type: functional, cell-based

ATP-dependent translocase ABCB1, sequence (P08183 whole entry): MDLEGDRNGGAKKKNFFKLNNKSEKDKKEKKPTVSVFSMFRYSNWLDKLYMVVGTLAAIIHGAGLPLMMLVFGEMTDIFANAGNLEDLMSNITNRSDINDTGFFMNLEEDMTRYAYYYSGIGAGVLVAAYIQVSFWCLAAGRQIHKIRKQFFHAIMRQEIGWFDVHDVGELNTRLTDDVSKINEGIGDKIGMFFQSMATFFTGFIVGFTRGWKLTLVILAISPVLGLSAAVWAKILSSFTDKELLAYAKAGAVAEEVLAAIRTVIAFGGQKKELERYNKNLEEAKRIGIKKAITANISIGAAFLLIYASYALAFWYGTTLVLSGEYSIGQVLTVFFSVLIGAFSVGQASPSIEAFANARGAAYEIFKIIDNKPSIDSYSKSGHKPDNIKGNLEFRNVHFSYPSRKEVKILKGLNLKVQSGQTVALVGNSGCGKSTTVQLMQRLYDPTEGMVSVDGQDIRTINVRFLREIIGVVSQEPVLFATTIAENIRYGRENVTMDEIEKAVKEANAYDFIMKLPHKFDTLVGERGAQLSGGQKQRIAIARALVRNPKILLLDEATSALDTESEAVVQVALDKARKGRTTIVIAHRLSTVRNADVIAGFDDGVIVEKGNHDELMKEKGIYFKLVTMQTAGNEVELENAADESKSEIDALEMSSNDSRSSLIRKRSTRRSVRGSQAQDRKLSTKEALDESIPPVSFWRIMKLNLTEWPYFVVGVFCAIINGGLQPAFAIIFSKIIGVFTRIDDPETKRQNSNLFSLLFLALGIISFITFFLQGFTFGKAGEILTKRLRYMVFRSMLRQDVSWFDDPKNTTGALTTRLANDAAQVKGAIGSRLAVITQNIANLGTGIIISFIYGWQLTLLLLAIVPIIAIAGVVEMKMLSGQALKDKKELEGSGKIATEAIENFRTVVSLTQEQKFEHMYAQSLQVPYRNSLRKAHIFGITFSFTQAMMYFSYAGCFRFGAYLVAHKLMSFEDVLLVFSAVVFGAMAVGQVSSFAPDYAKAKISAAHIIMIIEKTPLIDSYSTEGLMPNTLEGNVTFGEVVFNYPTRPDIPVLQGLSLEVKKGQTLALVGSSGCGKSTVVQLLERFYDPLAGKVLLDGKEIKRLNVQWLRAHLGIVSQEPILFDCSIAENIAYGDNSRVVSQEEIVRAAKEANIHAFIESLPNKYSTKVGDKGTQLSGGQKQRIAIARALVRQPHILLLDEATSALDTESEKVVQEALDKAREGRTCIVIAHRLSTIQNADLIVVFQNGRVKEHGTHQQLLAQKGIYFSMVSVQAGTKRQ

- Activity: inhibitor [+]
Structure (SMILES): COc1ccccc1OCCNCC(O)COc1cccc2[nH]c3ccccc3c12 (stereo unspecified) [CARVEDILOL]
